Measurements reported in ChEMBL document CHEMBL1201862, “PubChem BioAssay data set” (2004).
Calls of active or inactive are those of the source.

Key:
[1] = biological target: Luciferin 4-monooxygenase (Photinus pyralis, UniProt P08659); assay: inhibition of purified Photinus pyralis luciferase – biochemical, luminescence, dose response (AID 1891)
[2] = Luminescence Cell-Based Dose Confirmation HTS to Identify Inhibitors of Platelet Dense Granule Release. [Related pubchem assays: 1663 (Primary HTS), 1678 (Summary of Project)]; type: functional
Cytochrome P450 3A4 [3] = biological target: T1, Cytochrome P450 3A4 (Homo sapiens, UniProt P08684);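 note: CYP3A4 tested as one member of a cytochrome P450 panel screen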
T1 sequence (P08684 whole entry): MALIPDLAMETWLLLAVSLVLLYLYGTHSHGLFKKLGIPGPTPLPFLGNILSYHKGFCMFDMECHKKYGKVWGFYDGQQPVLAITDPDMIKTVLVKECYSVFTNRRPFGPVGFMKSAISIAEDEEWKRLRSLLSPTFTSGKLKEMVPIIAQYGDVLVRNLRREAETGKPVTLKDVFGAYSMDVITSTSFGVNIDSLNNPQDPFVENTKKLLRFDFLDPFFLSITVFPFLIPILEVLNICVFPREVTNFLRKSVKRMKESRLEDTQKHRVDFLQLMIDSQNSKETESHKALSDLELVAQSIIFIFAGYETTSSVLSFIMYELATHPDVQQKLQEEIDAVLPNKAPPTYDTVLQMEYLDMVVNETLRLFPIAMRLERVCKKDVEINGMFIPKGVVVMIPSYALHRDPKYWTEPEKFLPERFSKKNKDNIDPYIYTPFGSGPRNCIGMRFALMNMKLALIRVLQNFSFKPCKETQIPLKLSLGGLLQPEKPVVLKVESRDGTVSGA

[4] = biological target: T2, Microphthalmia-associated transcription factor (Homo sapiens, UniProt O75030); assay: reducers of TRPM1 reporter luminescence, concentration series – cell-based, SK-MEL-5, cherry-picked, set 3, MITF inhibitor project, dose response (AID 493073); type: functional;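 note: SK-MEL-5 melanoma cells with luciferase driven by the MITF target TRPM1 promoter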
T2 sequence (O75030 whole entry): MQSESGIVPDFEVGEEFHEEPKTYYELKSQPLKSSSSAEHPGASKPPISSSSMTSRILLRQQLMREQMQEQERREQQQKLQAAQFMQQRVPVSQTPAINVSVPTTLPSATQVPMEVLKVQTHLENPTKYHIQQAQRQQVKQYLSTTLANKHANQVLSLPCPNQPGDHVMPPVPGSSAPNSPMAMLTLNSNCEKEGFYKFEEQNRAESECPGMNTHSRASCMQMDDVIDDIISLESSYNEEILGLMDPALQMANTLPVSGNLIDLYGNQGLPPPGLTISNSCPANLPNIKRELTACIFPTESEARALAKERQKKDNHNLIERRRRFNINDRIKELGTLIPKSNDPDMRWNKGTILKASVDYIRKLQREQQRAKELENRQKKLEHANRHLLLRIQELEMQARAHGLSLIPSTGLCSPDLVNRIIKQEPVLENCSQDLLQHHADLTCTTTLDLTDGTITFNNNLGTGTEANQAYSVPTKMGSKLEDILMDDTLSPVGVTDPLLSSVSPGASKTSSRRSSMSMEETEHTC

Cytochrome P450 2C19 = Cytochrome P450 2C19 (Homo sapiens, UniProt P33261); assay: Cytochrome panel assay with activity outcomes. Panel member name: p450-cyp2c19 Compounds with AC50 equal or less than 10 uM are considered active; type: functional; conditions: read-out: AC50
Sequence of Cytochrome P450 2C19 (P33261 whole entry): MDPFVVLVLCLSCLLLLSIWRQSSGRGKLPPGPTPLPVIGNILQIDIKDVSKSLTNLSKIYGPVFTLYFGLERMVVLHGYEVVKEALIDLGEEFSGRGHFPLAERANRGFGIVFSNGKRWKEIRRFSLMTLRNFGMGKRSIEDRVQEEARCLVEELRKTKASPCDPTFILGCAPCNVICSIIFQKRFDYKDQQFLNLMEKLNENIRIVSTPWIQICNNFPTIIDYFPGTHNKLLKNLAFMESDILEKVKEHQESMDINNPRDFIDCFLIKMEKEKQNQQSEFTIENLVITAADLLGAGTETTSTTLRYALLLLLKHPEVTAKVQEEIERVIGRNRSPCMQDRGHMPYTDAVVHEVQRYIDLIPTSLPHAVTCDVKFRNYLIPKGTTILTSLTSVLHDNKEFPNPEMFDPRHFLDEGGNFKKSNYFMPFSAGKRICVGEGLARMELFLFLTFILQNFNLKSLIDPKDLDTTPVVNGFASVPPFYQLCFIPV

Cytochrome P450 2C9 [5] = biological target: T3, Cytochrome P450 2C9 (Homo sapiens, UniProt P11712)
T3 sequence (P11712 whole entry): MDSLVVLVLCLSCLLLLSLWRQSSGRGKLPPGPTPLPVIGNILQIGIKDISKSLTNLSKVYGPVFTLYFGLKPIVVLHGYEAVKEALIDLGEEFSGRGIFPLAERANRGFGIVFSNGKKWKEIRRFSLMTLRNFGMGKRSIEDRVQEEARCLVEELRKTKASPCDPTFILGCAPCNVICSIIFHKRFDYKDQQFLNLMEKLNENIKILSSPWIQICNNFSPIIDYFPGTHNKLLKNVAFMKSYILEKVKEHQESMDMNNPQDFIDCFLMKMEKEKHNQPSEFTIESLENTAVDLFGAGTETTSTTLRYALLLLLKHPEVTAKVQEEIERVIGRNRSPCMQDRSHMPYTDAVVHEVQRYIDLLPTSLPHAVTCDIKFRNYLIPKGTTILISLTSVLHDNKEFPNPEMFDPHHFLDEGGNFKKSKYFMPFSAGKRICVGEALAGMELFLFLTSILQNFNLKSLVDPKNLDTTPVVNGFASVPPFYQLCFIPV

Cytochrome P450 3A4 [6] = biological target: T1, Cytochrome P450 3A4; remark: listed apart in the source
Cytochrome P450 1A2 = biological target: T4, Cytochrome P450 1A2 (Homo sapiens, UniProt P05177);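 note: PubChem cytochrome P450 panel assay, CYP1A2 panel member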
T4 sequence (P05177 whole entry): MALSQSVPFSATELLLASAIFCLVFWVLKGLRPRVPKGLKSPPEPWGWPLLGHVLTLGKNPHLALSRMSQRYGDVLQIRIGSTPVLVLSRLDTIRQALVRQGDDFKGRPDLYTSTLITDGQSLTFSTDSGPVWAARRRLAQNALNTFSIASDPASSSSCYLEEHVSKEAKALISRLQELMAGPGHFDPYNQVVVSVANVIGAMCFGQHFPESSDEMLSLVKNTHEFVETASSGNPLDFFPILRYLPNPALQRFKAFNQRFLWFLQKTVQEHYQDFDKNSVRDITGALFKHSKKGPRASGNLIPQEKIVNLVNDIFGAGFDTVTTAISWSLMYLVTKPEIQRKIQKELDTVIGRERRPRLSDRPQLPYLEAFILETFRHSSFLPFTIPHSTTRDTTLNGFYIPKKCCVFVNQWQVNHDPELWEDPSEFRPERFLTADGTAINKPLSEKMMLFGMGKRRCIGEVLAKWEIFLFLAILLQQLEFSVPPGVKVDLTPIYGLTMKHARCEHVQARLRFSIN

Cytochrome P450 2D6 = Cytochrome P450 2D6 (Homo sapiens, UniProt P10635);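 note: CYP2D6 member of a cytochrome P450 panel assay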
Sequence of Cytochrome P450 2D6 (P10635 whole entry): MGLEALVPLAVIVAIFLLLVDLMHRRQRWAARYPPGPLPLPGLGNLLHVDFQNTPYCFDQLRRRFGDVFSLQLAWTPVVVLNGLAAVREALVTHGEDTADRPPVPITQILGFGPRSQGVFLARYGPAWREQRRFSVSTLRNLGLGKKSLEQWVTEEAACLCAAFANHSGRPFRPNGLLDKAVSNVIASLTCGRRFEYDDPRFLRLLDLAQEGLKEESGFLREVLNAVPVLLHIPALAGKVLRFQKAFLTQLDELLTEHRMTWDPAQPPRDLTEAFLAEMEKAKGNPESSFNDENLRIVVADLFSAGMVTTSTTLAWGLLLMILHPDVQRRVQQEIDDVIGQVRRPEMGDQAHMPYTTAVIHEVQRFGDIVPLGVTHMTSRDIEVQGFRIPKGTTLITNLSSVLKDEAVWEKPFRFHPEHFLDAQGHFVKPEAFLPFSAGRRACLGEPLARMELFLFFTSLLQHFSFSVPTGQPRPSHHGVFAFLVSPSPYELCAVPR

[7] = NIH3T3 cell viability loss – ATP luminescence, mouse fibroblasts, counter-screen, dose response (AID 2010); type: functional, cell-based;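 note: cells exposed to compound for about 90 hours before reading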
[8] = Trypanosoma cruzi growth suppression in host cells – NIH3T3 host cells, beta-gal luminescence, confirmation (AID 2044); type: functional, cell-based;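 note: intracellular parasites grown in NIH/3T3 mouse fibroblasts as host cells; luminescent beta-galactosidase reporter signal from transgenic T. cruzi replicating inside host cells; inhibitors lower the luminescence signal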
[9] = biological target: T5, RNA-binding protein pos-1 (Caenorhabditis elegans, UniProt G5EF15); assay: disruptors of C. elegans POS-1 RNA interaction – biochemical, fluorescence polarization, dose response (AID 1964);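 note: purified POS-1 fused to maltose binding protein made in E. coli; potency of compounds blocking POS-1 binding to fluorescent RNA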
T5 sequence (G5EF15 whole entry): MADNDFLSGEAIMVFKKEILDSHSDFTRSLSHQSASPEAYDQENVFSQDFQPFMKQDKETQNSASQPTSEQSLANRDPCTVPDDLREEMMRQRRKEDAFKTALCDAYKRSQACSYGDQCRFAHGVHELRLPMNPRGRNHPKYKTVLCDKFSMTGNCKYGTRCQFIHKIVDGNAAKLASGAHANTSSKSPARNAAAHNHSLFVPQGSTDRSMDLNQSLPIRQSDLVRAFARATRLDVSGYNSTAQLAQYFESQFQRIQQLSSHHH

[10] = biological target: T6, Zinc finger protein mex-5 (Caenorhabditis elegans, UniProt Q9XUB2); assay: potency of MEX-5 RNA-binding blockers – biochemical, C. elegans, fluorescence polarization, dose response (AID 1960)
T6 sequence (Q9XUB2 whole entry): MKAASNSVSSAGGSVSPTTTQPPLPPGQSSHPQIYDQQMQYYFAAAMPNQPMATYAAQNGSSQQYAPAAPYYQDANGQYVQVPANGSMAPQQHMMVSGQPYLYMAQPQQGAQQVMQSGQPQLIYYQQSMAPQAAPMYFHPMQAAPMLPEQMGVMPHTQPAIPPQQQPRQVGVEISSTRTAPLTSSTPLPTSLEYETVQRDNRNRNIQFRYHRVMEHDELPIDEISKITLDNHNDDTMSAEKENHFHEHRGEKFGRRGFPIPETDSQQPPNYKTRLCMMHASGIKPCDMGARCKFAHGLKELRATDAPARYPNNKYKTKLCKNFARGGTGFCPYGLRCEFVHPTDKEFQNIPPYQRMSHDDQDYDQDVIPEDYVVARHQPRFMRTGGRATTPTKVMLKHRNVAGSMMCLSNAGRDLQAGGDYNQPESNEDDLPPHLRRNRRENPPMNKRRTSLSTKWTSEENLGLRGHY

Cytochrome P450 2C9 [11] = biological target: T3, Cytochrome P450 2C9; remark: listed apart in the source
[12] = Luminescence Cell-Based Dose Retest to Confirm Inhibitors of Cancer Stem Cells. [Related pubchem assays (depositor defined):AID2717, AID2721]; type: functional; conditions: Homo sapiens
INS1 = assay: INS-1E survival protection against cytokine death – cell-based, luminescence, retest, dose response (AID 449756); type: functional; conditions: Rattus norvegicus;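 note: cell death triggered by IL-1 beta plus TNF-alpha plus IFN-gamma mixture; protective hits raise ATP signal compared with cytokine alone wells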
[13] = viability of HCT116 lacking mutant beta-catenin – cell-based, human colon tumor, dose response (AID 1045); type: functional;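 note: HCT116 colon tumor cells with beta catenin knocked out; cells exposed to compound for 60 hours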
[14] = viability of PTEN-deleted HCT116 cells – cell-based, HCT116 PTEN knockout, dose response (AID 1047); type: functional;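 note: HCT116 colon tumor cells with PTEN knocked out; cells exposed to compound for 60 hours before readout; potency for loss of cell viability measured by luminescence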
[15] = Luminescence Cell-Based Dose Confirmation HTS to Identify Activators of 5'UTR Stem-Loop Driven Alpha-Synuclein mRNA Translation in H4 Neuroglioblastoma Cells. [Related pubchem assays: 1829 (Project Summary), 1814 (Primary HTS)]; type: functional
[16] = Luminescence Cell-Based Dose Response HTS to Identify Activators of Luciferase Translation or Activity in H4 […] Cells. [Related pubchem assays: 1829 (Project Summary), 1814 (Primary HTS)]; type: functional
H4 = assay: Luminescence Cell-Based Dose Response HTS to Identify Activators of 5'UTR Stem-Loop Driven Prion Protein mRNA Translation in H4 Neuroglioblastoma Cells. [Related pubchem assays: 1829 (Project Summary), 1814 (Primary HTS)]; type: functional; conditions: Homo sapiens
[17] = biological target: Induced myeloid leukemia cell differentiation protein Mcl-1 (Homo sapiens, UniProt Q07820); type: functional
Sequence of Induced myeloid leukemia cell differentiation protein Mcl-1 (Q07820 whole entry): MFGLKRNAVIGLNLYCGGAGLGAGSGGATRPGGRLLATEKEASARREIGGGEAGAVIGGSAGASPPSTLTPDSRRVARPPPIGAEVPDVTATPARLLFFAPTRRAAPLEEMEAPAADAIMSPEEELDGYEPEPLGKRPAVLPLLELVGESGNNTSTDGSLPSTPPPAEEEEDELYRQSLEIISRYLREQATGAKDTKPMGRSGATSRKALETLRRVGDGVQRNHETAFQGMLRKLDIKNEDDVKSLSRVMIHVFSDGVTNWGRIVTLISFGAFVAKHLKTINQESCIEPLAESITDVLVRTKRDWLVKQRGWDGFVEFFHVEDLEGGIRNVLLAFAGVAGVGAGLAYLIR

Sequence of Luciferin 4-monooxygenase (P08659 whole entry): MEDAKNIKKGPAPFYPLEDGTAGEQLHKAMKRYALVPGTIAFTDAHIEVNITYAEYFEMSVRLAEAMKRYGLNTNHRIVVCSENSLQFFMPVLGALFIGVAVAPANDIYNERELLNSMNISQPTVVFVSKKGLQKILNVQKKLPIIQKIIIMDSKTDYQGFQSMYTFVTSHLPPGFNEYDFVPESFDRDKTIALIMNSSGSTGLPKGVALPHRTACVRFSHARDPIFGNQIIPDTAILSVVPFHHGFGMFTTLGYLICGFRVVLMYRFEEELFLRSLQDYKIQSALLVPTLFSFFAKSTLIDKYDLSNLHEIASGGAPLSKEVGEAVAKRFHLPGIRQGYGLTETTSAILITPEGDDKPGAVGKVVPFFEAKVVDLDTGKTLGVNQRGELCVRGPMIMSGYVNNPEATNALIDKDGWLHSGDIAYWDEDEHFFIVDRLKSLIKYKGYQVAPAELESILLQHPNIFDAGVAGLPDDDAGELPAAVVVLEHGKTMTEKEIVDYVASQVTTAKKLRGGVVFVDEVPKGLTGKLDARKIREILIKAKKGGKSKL

Compound: CC1(C)CC(N2CCC(=O)NC2=S)CC(C)(C)N1
- EC50 [1]: > 112 µM (not active)
- EC50 [2]: > 112 µM (not active)

Compound: CSc1nc2ccccc2cc1/C=C(\C#N)c1ccccc1
- AC50 (Cytochrome P450 3A4 [3]): inconclusive

Compound: CCCCCCN1C=CC(=C2C(=O)c3ccccc3C2=O)C=C1
- AC50 [4]: 3.86 µM (active)

Compound: O=C(CCNC(=O)c1ccc(Br)o1)NCc1ccccn1
- AC50 (Cytochrome P450 2C19): 17.8 µM (inconclusive)
- AC50 (Cytochrome P450 2C9 [5]): inconclusive
- AC50 (Cytochrome P450 3A4 [6]): 14.1 µM (inconclusive)
- AC50 (Cytochrome P450 1A2): 14.1 µM (inconclusive)

Compound: CCC(=O)Nc1cccc(-c2nc3ccccc3c(=O)o2)c1
- AC50 (Cytochrome P450 2C19): 39.8 µM (inconclusive)
- AC50 (Cytochrome P450 2C9 [5]): inconclusive
- AC50 (Cytochrome P450 3A4 [6]): 28.2 µM (inconclusive)
- AC50 (Cytochrome P450 2D6): 31.6 µM (inconclusive)

Compound: C=CC[C@H](N)C(=O)O
- AC50 (Cytochrome P450 3A4 [3]): inconclusive

Compound: O=C(/C=C/c1ccc([N+](=O)[O-])s1)N1CCCC1
- EC50 [7]: > 60 µM (not active)
- EC50 [8]: 1.03 µM (active)
- EC50 [9]: > 300 µM (not active)
- AC50 [4]: 9.86 µM (active)
- EC50 [10]: > 300 µM (not active)

Compound: Cc1ccccc1-n1c(=O)cc(N2CC(C)OC(C)C2)[nH]c1=O (stereo unspecified)
- AC50 (Cytochrome P450 3A4 [3]): inconclusive

Compound: CCS(=O)(=O)N1CCC[C@H]2CN3CCc4cc(OC)ccc4[C@@H]3C[C@@H]21
- AC50 (Cytochrome P450 2C9 [5]): inconclusive
- AC50 (Cytochrome P450 1A2): 31.6 µM (inconclusive)

Compound: O=C(NC1CCN(Cc2ccccc2)CC1)c1ccc(I)cc1
- AC50 (Cytochrome P450 2C9 [11]): 39.8 µM (inconclusive)
- AC50 (Cytochrome P450 1A2): 39.8 µM (inconclusive)
- AC50 (Cytochrome P450 3A4 [3]): inconclusive

Compound: Cc1cccc(C(=N)NOC(=O)c2ccccc2Cl)c1
- EC50 [1]: 1.96 µM (active)
- EC50 [2]: 3.84 µM (active)

Compound: S=c1nc(-c2ccccc2)oc2c1CCCC2
- AC50 (Cytochrome P450 2C9 [5]): inconclusive

Compound: O=C(NCc1cccs1)C1CCN(S(=O)(=O)c2cccc3nsnc23)CC1
- AC50 (Cytochrome P450 2C9 [5]): inconclusive
- AC50 (Cytochrome P450 1A2): 0.158 µM (inconclusive)
- AC50 (Cytochrome P450 2D6): 6.31 µM (inconclusive)

Compound: O=C(OCC#CCSc1nnc(-c2cccc3ccccc23)o1)c1ccco1
- AC50 (Cytochrome P450 2C9 [5]): inconclusive

Compound: Cc1cc([N+](=O)[O-])ccc1-c1ccc(/C=N/NC(=O)c2ccc(Br)o2)o1
- EC50 [9]: 19.7 µM (active)
- AC50 [12]: 2.35 µM (active)
- EC50 [10]: 5.51 µM (active)

Compound: Cc1ccc(C(C)C)c(OCc2n[n+](CC(=O)c3ccc(Cl)cc3)c3n2CCCCC3)c1
- EC50 [7]: > 60 µM (not active)
- EC50 [8]: 0.304 µM (active)
- AC50 [4]: 9.83 µM (active)
- AC50 (INS1): 3.41 µM (active)
- AC50 [12]: 3.31 µM (active)

Compound: CCN(CC)CCO[C@H]1CC[C@@]2(C)C(=CC[C@@H]3[C@H]2CC[C@]2(C)C(=O)CC[C@H]32)C1
- AC50 (Cytochrome P450 3A4 [3]): inconclusive

Compound: CO/N=C/c1ccc(N2CCN(C(=O)c3ccc(Cl)cc3Cl)CC2)c([N+](=O)[O-])c1
- EC50 [13]: 22.3 µM (active)
- EC50 [14]: 20.3 µM (active)
- AC50 (Cytochrome P450 3A4 [3]): inconclusive

Compound: Cn1c(=O)c2cc(S(=O)(=O)NCCC(=O)NCCc3ccc(Cl)cc3)ccc2n(C)c1=O
- AC50 (Cytochrome P450 2C9 [5]): inconclusive
- AC50 (Cytochrome P450 1A2): 0.0398 µM (inconclusive)

Compound: Cc1ccccc1-c1cc(NCCN2CCOCC2)ncn1
- AC50 (Cytochrome P450 1A2): 31.6 µM (inconclusive)
- AC50 (Cytochrome P450 3A4 [3]): inconclusive

Compound: CC(C)c1ccc(-c2cc(C(=O)NN3CCN(C)CC3)c3ccccc3n2)cc1
- EC50 [15]: 3.59 µM (active)
- EC50 [16]: 3.27 µM (active)
- EC50 (H4): 9.4 µM (active)
- EC50 [1]: 18.2 µM (active)
- EC50 [2]: 5.93 µM (active)

Compound: O=C(N/N=C/c1ccc(F)cc1)c1c(O)nc2ccccc2c1O
- AC50 [4]: 9.64 µM (active)

Compound: O=C(O)c1ccccc1N/N=C/c1c(Sc2nnnn2-c2ccccc2)nc2ccccn2c1=O
- EC50 [9]: > 300 µM (not active)
- IC50 [17]: 2.58 µM (active)
- EC50 [10]: 116 µM (active)

Compound: Cc1ccc(O)c(N=Nc2ccccc2)n1
- EC50 [1]: 1.2 µM (active)
- EC50 [2]: < 0.701 µM (active)

Compound: Cc1noc(C)c1-c1nccc(-n2ccnc2)n1
- AC50 (Cytochrome P450 2C9 [5]): inconclusive
- AC50 (Cytochrome P450 2D6): 20 µM (inconclusive)

Compound: C[C@@]12CC[C@@H]3[C@@H](CC[C@H]4C[C@@H](O)CC[C@]43C)[C@H]1CC[C@@H]2c1cc(C(F)(F)F)[nH]n1
- AC50 (Cytochrome P450 2C9 [11]): 7.94 µM (inconclusive)
- AC50 (Cytochrome P450 3A4 [3]): inconclusive

Compound: Cc1cccc(NC(=O)CCCN2C(=O)c3cccc4cccc(c34)C2=O)c1
- AC50 (Cytochrome P450 2C9 [5]): inconclusive
- AC50 (Cytochrome P450 2D6): 25.1 µM (inconclusive)

Compound: Oc1cccc(/C=N/Nc2nn3cnnc3c3ccccc23)c1
- EC50 [1]: 5.06 µM (active)
- EC50 [2]: 18.8 µM (active)
